Laboratory results as given in patent US9474758B2, “Thienopyrimidinedione derivatives as TRPA1 modulators” (Glenmark Pharmaceuticals S.A., priority 2009, dated 2016).

Experiments:
[1] = target: T1, Human TRPA1 expressing CHO cells (Homo sapiens, UniProt O75762); test: 45Calcium uptake assay, inhibition of AITC induced calcium uptake (human); assay type: cell-based; conditions: human TRPA1 CHO cells, AITC 30 μM; for inhibition at 1 µM: compound 1.0 μM, read-out: Percentage inhibition at 1.0 μM; for inhibition at 10 µM: compound 10.0 μM, read-out: Percentage inhibition at 10.0 μM; for IC50: read-out: Human IC50 value (Range)
T1 construct: expressed in transfected cells; host or cells: CHO cells (G-418 selection)
T1 sequence (O75762 whole entry): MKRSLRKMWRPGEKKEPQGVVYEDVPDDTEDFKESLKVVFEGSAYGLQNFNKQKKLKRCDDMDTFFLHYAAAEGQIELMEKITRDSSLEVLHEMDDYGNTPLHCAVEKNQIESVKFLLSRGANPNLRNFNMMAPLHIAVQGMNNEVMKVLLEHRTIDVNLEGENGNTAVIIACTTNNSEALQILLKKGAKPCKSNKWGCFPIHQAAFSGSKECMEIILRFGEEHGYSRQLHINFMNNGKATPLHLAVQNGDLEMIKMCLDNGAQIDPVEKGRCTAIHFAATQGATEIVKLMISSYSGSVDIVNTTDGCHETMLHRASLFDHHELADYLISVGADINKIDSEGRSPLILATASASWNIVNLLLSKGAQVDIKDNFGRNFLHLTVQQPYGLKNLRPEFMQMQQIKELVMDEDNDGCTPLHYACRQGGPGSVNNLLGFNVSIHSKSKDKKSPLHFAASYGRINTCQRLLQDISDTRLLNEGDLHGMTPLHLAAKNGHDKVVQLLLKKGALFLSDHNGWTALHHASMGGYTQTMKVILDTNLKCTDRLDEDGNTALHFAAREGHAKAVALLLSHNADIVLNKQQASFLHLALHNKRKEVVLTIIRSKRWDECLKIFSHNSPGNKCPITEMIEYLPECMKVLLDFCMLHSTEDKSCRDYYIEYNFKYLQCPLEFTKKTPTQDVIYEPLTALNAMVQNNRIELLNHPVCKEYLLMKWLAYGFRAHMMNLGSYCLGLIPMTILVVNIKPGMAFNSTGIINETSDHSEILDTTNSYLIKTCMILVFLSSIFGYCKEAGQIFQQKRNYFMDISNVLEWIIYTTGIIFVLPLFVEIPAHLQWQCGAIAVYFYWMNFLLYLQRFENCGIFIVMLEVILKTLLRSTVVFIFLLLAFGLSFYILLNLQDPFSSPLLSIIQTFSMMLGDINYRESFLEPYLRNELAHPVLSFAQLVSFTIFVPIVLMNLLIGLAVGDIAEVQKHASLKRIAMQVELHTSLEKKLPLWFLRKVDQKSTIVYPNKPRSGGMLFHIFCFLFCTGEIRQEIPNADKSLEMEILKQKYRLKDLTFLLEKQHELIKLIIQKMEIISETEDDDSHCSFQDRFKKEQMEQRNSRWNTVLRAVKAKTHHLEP
Experimental: (§1) Screening for TRPA1 Antagonist Using the ^45Calcium Uptake Assay:
(§2) The inhibition of TRPA1 receptor activation was measured as inhibition of allyl isothiocyanate (AITC) induced cellular uptake of radioactive calcium.
(§3) Test compounds were dissolved in 100% DMSO to prepare 10 mM stock and then diluted using plain medium with 0.1% BSA and 1.8 mM CaCl2 to get the desired concentration. The final concentration of DMSO in the reaction was 0.5% (v/v). […] Rat TRPA1 expressing CHO cells were grown in F-12 DMEM medium with 10% FBS, 1% penicillin-streptomycin solution, and 400 μg/ml of Zeocin. […] Cells were treated with the test compounds for 10 minutes followed by the addition of AITC at a final concentration of 30 μM (for human TRPA1) and/or 10 μM (for rat TRPA1) and 5 μCi/ml ^45Ca^+2 for 3 minutes. Cells were washed and lysed using a buffer containing 1% Triton X-100, 0.1% deoxycholate and 0.1% SDS. Radioactivity in the lysate was measured in a Packard TopCount after addition of liquid scintillant.
(§4) Concentration response curves were plotted as a % of maximal response obtained in the absence of test antagonist. IC50 values can be calculated from concentration response curve by nonlinear regression analysis using GraphPad PRISM software.

[2] = target: T2, Rat TRPA1 expressing CHO cells (Rattus norvegicus, UniProt Q6RI86); test: 45Calcium uptake assay, inhibition of AITC induced calcium uptake (rat); assay type: cell-based; conditions: rat TRPA1 CHO cells, AITC 10 μM; for inhibition at 1 µM: compound 1.0 μM, read-out: Percentage inhibition at 1.0 μM; for inhibition at 10 µM: compound 10.0 μM, read-out: Percentage inhibition at 10.0 μM; for IC50: read-out: Rat IC50 value (Range)
T2 construct: expressed in transfected cells; host or cells: CHO cells (Zeocin selection)
T2 sequence (Q6RI86 whole entry): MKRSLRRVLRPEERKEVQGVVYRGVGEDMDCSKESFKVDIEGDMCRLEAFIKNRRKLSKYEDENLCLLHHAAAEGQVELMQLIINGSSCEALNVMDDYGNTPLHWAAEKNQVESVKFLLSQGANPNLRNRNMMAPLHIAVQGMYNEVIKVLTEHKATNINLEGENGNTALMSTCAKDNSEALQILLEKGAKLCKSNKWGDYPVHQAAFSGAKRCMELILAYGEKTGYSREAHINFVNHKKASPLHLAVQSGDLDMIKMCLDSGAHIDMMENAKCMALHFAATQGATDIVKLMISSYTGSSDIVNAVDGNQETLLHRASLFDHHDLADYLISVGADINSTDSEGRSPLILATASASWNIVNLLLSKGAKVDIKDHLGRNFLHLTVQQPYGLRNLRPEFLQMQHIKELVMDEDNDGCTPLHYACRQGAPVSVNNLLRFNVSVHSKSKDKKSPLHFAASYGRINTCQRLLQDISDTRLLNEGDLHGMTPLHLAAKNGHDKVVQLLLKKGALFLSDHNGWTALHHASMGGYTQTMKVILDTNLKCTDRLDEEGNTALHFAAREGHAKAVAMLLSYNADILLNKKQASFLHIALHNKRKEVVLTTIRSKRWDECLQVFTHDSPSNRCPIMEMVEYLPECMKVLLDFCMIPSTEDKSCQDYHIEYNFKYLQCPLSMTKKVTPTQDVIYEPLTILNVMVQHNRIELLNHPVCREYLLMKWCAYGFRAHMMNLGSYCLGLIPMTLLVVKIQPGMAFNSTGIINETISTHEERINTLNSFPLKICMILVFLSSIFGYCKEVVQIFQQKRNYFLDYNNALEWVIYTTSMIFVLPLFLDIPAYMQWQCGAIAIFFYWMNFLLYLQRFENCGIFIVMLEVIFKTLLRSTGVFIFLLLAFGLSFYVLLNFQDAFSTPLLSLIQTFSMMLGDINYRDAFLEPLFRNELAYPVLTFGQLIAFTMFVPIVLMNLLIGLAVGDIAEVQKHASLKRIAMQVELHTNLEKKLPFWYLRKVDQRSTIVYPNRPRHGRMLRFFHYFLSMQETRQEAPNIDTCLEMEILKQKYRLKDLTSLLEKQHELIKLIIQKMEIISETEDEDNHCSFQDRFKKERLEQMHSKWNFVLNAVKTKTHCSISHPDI
Experimental: as §1, §2, §3, §4

Compound	inhibition at 1 µM [1] [%]	inhibition at 10 µM [1] [%]	IC50 [1] [nM]	inhibition at 1 µM [2] [%]	inhibition at 10 µM [2] [%]	IC50 [2] [nM]
CCCc1sc2c(c1CC(=O)Nc1nc(-c3cc(F)c(OC(F)F)c(F)c3)cs1)c(=O)n(C)c(=O)n2C [Example 36, N-{4-[4-Difluoromethoxy-3,5-difluorophenyl]-1,3-thiazol-2-yl}-2-(1,3-dimethyl-2,4-dioxo-6-propyl-1,2,3,4-tetrahydrothieno[2,3-d]pyrimidin-5-yl) acetamide]	98.9	99.8	< 50	99.1	99.5	50 to 500
CC(C)Cc1ccc(-c2csc(NC(=O)Cc3scc4c3c(=O)n(C)c(=O)n4C)n2)cc1 [Example 44, 2-(1,3-Dimethyl-2,4-dioxo-1,2,3,4-tetrahydrothieno[3,4-d]pyrimidin-5-yl)-N-[4-(4-isobutylphenyl)-1,3-thiazol-2-yl]acetamide]	91.4	93.2	50 to 500	84.1	95.3	–
Cn1c(=O)c2c(CC(=O)Nc3nc(-c4ccc(C(F)(F)F)cc4)cs3)scc2n(C)c1=O [Example 47]	97.9	98.8	< 50	88.9	99.6	–
Cn1c(=O)c2c(CC(=O)Nc3nc(-c4ccc(F)c(C(F)(F)F)c4)cs3)scc2n(C)c1=O [Example 49, 2-(1,3-Dimethyl-2,4-dioxo-1,2,3,4-tetrahydrothieno[3,4-d]pyrimidin-5-yl)-N-{4-[4-fluoro-3-(trifluoromethyl)phenyl]-1,3-thiazol-2-yl}acetamide]	96	99.8	< 50	89.9	99	50 to 500
Cn1c(=O)c2c(CC(=O)Nc3nc(-c4ccc(C(F)(F)F)c(F)c4)cs3)scc2n(C)c1=O [Example 50, 2-(1,3-Dimethyl-2,4-dioxo-1,2,3,4-tetrahydrothieno[3,4-d]pyrimidin-5-yl)-N-{4-[3-fluoro-4-(trifluoromethyl)phenyl]-1,3-thiazol-2-yl}acetamide]	99.5	100	< 50	57.4	99.1	–
Cn1c(=O)c2c(CC(=O)Nc3nc(-c4ccc(OC(F)(F)F)c(F)c4)cs3)scc2n(C)c1=O [Example 52, 2-(1,3-Dimethyl-2,4-dioxo-1,2,3,4-tetrahydrothieno[3,4-d]pyrimidin-5-yl)-N-{4-[3-fluoro-4-(trifluoromethoxy)phenyl]-1,3-thiazol-2-yl}acetamide]	98	94.4	< 50	92.3	98.1	50 to 500
Cn1c(=O)c2c(CC(=O)Nc3nc(-c4ccc(Cl)c(Cl)c4)cs3)scc2n(C)c1=O [Example 53, N-[4-(3,4-Dichlorophenyl)-1,3-thiazol-2-yl]-2-(1,3-dimethyl-2,4-dioxo-1,2,3,4-tetrahydrothieno[3,4-d]pyrimidin-5-yl)acetamide]	97.8	99.3	50 to 500	42.7	97.9	–
Cn1c(=O)c2c(CC(=O)Nc3nc(-c4ccc(F)c(OC(F)(F)F)c4)cs3)scc2n(C)c1=O [Example 55, 2-(1,3-Dimethyl-2,4-dioxo-1,2,3,4-tetrahydrothieno[3,4-d]pyrimidin-5-yl)-N-{4-[4-fluoro-3-(trifluoromethoxy)phenyl]-1,3-thiazol-2-yl}acetamide]	99.6	99.8	< 50	70.4	99.9	–
Cn1c(=O)c2c(CC(=O)Nc3nc(-c4ccc(C(F)(F)F)c(F)c4F)cs3)scc2n(C)c1=O [Example 56, N-{4-[2,3-Difluoro-4-(trifluoromethyl)phenyl]-1,3-thiazol-2-yl}-2-(1,3-dimethyl-2,4-dioxo-1,2,3,4-tetrahydrothieno[3,4-d]pyrimidin-5-yl)acetamide]	94.4	99.5	< 50	96.9	100	50 to 500
Cn1c(=O)c2c(CC(=O)Nc3nc(-c4cc(F)c(C(F)(F)F)c(F)c4)cs3)scc2n(C)c1=O [Example 58, N-{4-[3,5-difluoro-4-(trifluoromethyl)phenyl]-1,3-thiazol-2-yl}-2-(1,3-dimethyl-2,4-dioxo-1,2,3,4-tetrahydrothieno[3,4-d]pyrimidin-5-yl)acetamide]	84.9	95.8	< 50	71.1	71.7	–

More lines, now with the values ahead:

inhibition at 1 µM [1] [%]	inhibition at 10 µM [1] [%]	IC50 [1] [nM]	inhibition at 1 µM [2] [%]	inhibition at 10 µM [2] [%]	IC50 [2] [nM]	Compound
99.1	100	< 50	90.1	98.3	50 to 500	CCCc1sc2c(c1CC(=O)Nc1nc(-c3ccc(C(F)(F)F)c(F)c3)cs1)c(=O)n(C)c(=O)n2C [Example 35, N-{4-[3-Fluoro-4-(trifluoromethyl)phenyl]-1,3-thiazol-2-yl}-2-(1,3-dimethyl-2,4-dioxo-6-propyl-1,2,3,4-tetrahydrothieno[2,3-d]pyrimidin-5-yl) acetamide]
99	97.7	< 50	94.9	97	< 50	CC(C)c1sc2c(c1CC(=O)Nc1nc(-c3ccc(C(F)(F)F)c(F)c3)cs1)c(=O)n(C)c(=O)n2C [Example 37, N-{4-[3-Fluoro-4-(trifluoromethyl)phenyl]-1,3-thiazol-2-yl}-2-(6-isopropyl-1,3-dimethyl-2,4-dioxo-1,2,3,4-tetrahydrothieno[2,3-d]pyrimidin-5-yl)acetamide]
94	98.9	50 to 500	66.2	94.8	–	Cn1c(=O)c2c(CC(=O)Nc3nc(-c4ccc(Cl)cc4)cs3)scc2n(C)c1=O [Example 45, N-[4-(4-Chlorophenyl)-1,3-thiazol-2-yl]-2-(1,3-dimethyl-2,4-dioxo-1,2,3,4-tetrahydrothieno[3,4-d]pyrimidin-5-yl)acetamide]
93.9	98.5	< 50	93.2	99.7	50 to 500	Cn1c(=O)c2c(CC(=O)Nc3nc(-c4cccc(C(F)(F)F)c4)cs3)scc2n(C)c1=O [Example 46]
95.5	98.9	50 to 500	92.5	100	–	Cn1c(=O)c2c(CC(=O)Nc3nc(-c4cccc(OC(F)(F)F)c4)cs3)scc2n(C)c1=O [Example 48, 2-(1,3-Dimethyl-2,4-dioxo-1,2,3,4-tetrahydrothieno[3,4-d]pyrimidin-5-yl)-N-{4-[3-(trifluoromethoxy)phenyl]-1,3-thiazol-2-yl}acetamide]
96.9	99.7	< 50	93	100	50 to 500	Cn1c(=O)c2c(CC(=O)Nc3nc(-c4ccc(C(F)(F)F)cc4F)cs3)scc2n(C)c1=O [Example 51, 2-(1,3-Dimethyl-2,4-dioxo-1,2,3,4-tetrahydrothieno[3,4-d]pyrimidin-5-yl)-N-{4-[2-fluoro-4-(trifluoromethyl)phenyl]-1,3-thiazol-2-yl}acetamide]
95.1	99.7	< 50	41.6	91.8	–	Cn1c(=O)c2c(CC(=O)Nc3nc(-c4cc(F)cc(C(F)(F)F)c4)cs3)scc2n(C)c1=O [Example 54, 2-(1,3-Dimethyl-2,4-dioxo-1,2,3,4-tetrahydrothieno[3,4-d]pyrimidin-5-yl)-N-{4-[3-fluoro-5-(trifluoromethyl)phenyl]-1,3-thiazol-2-yl}acetamide]
96.9	91	< 50	97	100	< 50	Cn1c(=O)c2c(CC(=O)Nc3nc(-c4ccc(F)c(C(F)(F)F)c4F)cs3)scc2n(C)c1=O [Example 57, N-{4-[2,4-Difluoro-3-(trifluoromethyl)phenyl]-1,3-thiazol-2-yl}-2-(1,3-dimethyl-2,4-dioxo-1,2,3,4-tetrahydrothieno[3,4-d]pyrimidin-5-yl)acetamide]
